The conditions of series [1]: cited from earlier work; for effect on D-ARI concentration / higher mean dose-adjusted concentration of ARI / change of serum concentrations of ARI and AM versus control group: TDM database; for effect on D-ARI concentration / higher mean dose-adjusted concentration of ARI: ARI combined with the antidepressant.
The conditions of series [2]: cited from earlier work.
The nature of series [3]: Pharmacokinetic drug interaction study: aripiprazole single dose alone or after 6-day bupropion pretreatment, LC-MS/MS quantification, non-compartmental analysis. To be noted: for Vz_F / AUC(0-inf) / CL/F / Cmax / MRT / Tmax / k el: aripiprazole in rat plasma; for Vz_F / AUC(0-t) / AUC(0-inf) / CL/F / Cmax / MRT / Tmax / k el / half-life: mean ± S.D.; for AUC(0-t) / AUC(0-inf) / CL/F / Cmax / MRT / Tmax / k el / half-life: male, Wistar albino, rat, plasma, po, 8 mg/kg; for AUC(0-t): AUC0–30, aripiprazole in rat plasma; for AUC(0-inf): AUC0–∞; for CL/F: Cl_F; for k el: kel; for half-life: t1/2, aripiprazole in rat plasma.
Experimental: The suspension was vortex-mixed before each administration. We considered 15 mg ARI a usual therapeutic dose in humans. We multiplied by 10 the dose for rats/kg, but a higher dose of 8 mg/kg body weight (b.w.) was chosen to be suitable for detection in rat plasma, considering the analytical method sensitivity. […] We administered 43 mg/kg b.w. in rats, multiplying the target dose in humans of 300 mg/day by 10.
Twenty-four Wistar albino male rats were divided into two groups.
The collection of blood samples was carried out using the BASi Culex ABC®-Automatic Blood Collector device (BASi, West Lafayette, IN, USA). This facilitated the collection of exact volumes per sample and at exact times post-administration. One day prior to blood sample collection, rats in both groups went through a surgical procedure consisting of a cannula insertion on the femoral vein under intramuscular anesthesia (0.1 mL/100 g b.w. of 1:1 ketamine and xylazine solution), which allowed the device to have access to the rats’ bloodstream. The excess blood drawn on the catheter was returned to the animal along with saline, replacing the volume of blood collected to avoid fluid depletion.
Blood samples, 200 μL each, were automatically drawn in heparinized Eppendorf tubes at 10, 20, 30, 45 min, 1, 1.5, 2, 2.5, 3, 4, 6, 8, 10, 12, 16, 20, 24 and 30 h after ARI single-dose administration in the two experimental groups, and they were immediately placed at −20 °C until further analysis.
Samples were precipitated using acetonitrile. For a 0.1 mL blood sample, 0.3 mL of acetonitrile were added. After the samples were vortex-mixed with IKA Vortex 2 (1000 rpm) for 10 s and centrifuged for 5 min at 10,000 rpm using a Sigma 3-30KS centrifuge (9168× g), the supernatant was injected into the HPLC system.
For concomitant quantification of ARI and D-ARI, a validated reverse-phase liquid chromatography coupled with tandem mass spectrometry (LC-MS/MS) method was developed. The HPLC system Agilent 1100 series with a binary pump, autosampler and thermostat (Agilent Technologies, Santa Clara, CA, USA) was used. The Bruker Ion Trap SL (Bruker Daltonics GmbH, Bremen, Germany) was used for detection. […] Haloperidol spiked into the thawed blood samples was used as an internal standard. The mobile phase consisted of water and 0.3% (m/v) formic acid as eluent A and acetonitrile as eluent B, eluted in a linear gradient (start with 20% acetonitrile, up to 2.5 min 38% acetonitrile, keep at 38% acetonitrile until 4.2 min, re-equilibrate with 20% acetonitrile for 2 min). The injection volume was 5 μL, the flow rate was 1 mL/min and the thermostat temperature was set at 40 °C. The MS detection was in multiple reaction monitoring mode (MRM), and the ESI-MS spectra were recorded in positive ion mode. The following mass transitions were used for analyte quantification: m/z 448 → m/z 285 for ARI, m/z 446 → m/z 285 for D-ARI and m/z 376 → m/z 165 for haloperidol. In these chromatographic conditions, the retention times were 2.80 min for haloperidol, 3.15 min for D-ARI and 3.55 min for ARI, respectively. The concentrations of the two analytes were determined by the instrument data system (QuantAnalysis software, Bruker Daltonics GmbH, Bremen, Germany) using peak area ratios versus concentration ratios of each analyte versus internal standard. The calibration curve model was determined for five calibration series by the linear least squares analysis, weighted (1/y2). […] The matrix effects were measured by comparing the response of the spiked plasma with the response of standards in solvent with the same concentration of ARI and D-ARI as in plasma, and for the measurement of the absolute recovery, a spike and a post-spiked sample were compared [31, 32].

[4] abbreviates: co-medication, Japanese psychiatric patients.
Setting [5] is: ARI 8 mg/kg single dose after 6-day BUP 43 mg/kg pretreatment (test, n = 12).
Setting [6] is: ARI 8 mg/kg single dose alone (reference, n = 12).
The mark [7] stands for this setting: rats, after BUP repeated doses vs ARI alone.

Like-named read-outs stand apart in the source and are kept apart here.

The term AUC(0-t) denotes the area under the concentration-time curve up to a stated or last time point. As usually defined, the AUC(0-inf) is the area under the concentration-time curve extrapolated to infinity. One may read the CL/F as clearance divided by bioavailability, as obtained after extravascular dosing. The term Cmax denotes the peak of the concentration-time curve. As usually defined, the MRT is a mean duration of stay, worked out from the concentration-time curve. One may read the Tmax as the time from dosing to the highest level. In general, half-life refers to the time needed for the level to fall by half in the phase considered.

On to `Fc1ccc([C@@H]2CCNC[C@H]2COc2ccc3c(c2)OCO3)cc1` [paroxetine], for which, in series [1], the “effect on D-ARI concentration” value was “no effect” and the “higher mean dose-adjusted concentration of ARI” value was 45%. Further, in series [1] (setting [4]), the “increase of the plasma concentrations of ARI” value is recorded as 1.7 fold and the “increase of the plasma concentrations of the active moiety (AM)” value is reported as 1.5 fold.
Consider `CC(NC(C)(C)C)C(=O)c1cccc(Cl)c1` (centres unmarked) [BUP, Bupropion], for which the oral bioavailability in series [2] is 90%.
As to `O=C1CCc2ccc(OCCCCN3CCN(c4cccc(Cl)c4Cl)CC3)cc2N1` [Aripiprazole], in series [2], the “absolute oral bioavailability (F)” value is given as 87%, the “binding to plasma proteins” value was above 99%, the “time to reach maximum plasma concentration” value was 3 to 5 h and the “time to reach steady-state” value is listed as 14 days. Besides, in series [2] (poor metabolizers (PMs)), the “elimination t1/2” value was 146 h. In series [3] (setting [5]), the Vz_F is listed as 20.67 ± 27.53 L/kg, the AUC(0-t) is 5390 ± 2980 ng·h/mL, the AUC(0-inf) stood at 6310 ± 2980 ng·h/mL and the apparent clearance CL/F is 26.2 mL/min/kg. Moreover, in series [3] (setting [5]), the maximum concentration (Cmax) was found to be 472 ± 217 ng/mL, the mean residence time (MRT) was 19.2 ± 27.7 h, the time of peak concentration (Tmax) is 6.92 ± 2.47 h and the k el was 5e-05 s⁻¹. The half-life in series [3] (setting [5]) is 11.5 ± 20.2 h. Besides, in series [3] (setting [6]), the Vz_F is on record as 121.64 ± 143.94 L/kg, the area under the curve AUC(0-t) was determined as 1110 ± 931 ng·h/mL, the AUC(0-inf) was determined as 1120 ± 931 ng·h/mL and the CL/F is 248 mL/min/kg. In series [3] (setting [6]), the Cmax came out at 240 ± 169 ng/mL, the MRT worked out at 4.63 ± 1.78 h, the Tmax worked out at 1.65 ± 0.8 h and the k el was 4.17e-05 s⁻¹. Besides, the half-life in series [3] (setting [6]) is 5.56 ± 3.13 h. For the same compound, in series [3] (setting [7]), the “decrease of the apparent systemic clearance of ARI” value is reported as “over 9 fold”, the “increase of the mean AUC0–30 of ARI” value is reported as 4.85 fold, the “increase of the mean AUC0–∞ of ARI” value worked out at 5.65 fold and the “increase of the mean Cmax of ARI” value came to 96.76%. Further, in series [3] (rats, after BUP repeated doses vs ARI alone, listed as ARI), the “increase of the mean Cmax of ARI” value was found to be 2 fold.
With `CNCC[C@H](Oc1cccc2ccccc12)c1cccs1` [duloxetine], the “increase of the plasma concentrations of ARI” value in series [1] (large TDM database, co-medication) is reported as 54.2%.
With `CN[C@H]1CC[C@@H](c2ccc(Cl)c(Cl)c2)c2ccccc21` [sertraline], the “change of serum concentrations of ARI and AM versus control group” value (“change … of ARI and AM versus control group” below) in series [1] (co-medication) is “no significant influence”.
Consider `CNCCC(Oc1ccc(C(F)(F)F)cc1)c1ccccc1` (centres unmarked) [fluoxetine], for which, in series [1], the “effect on D-ARI concentration” value was “no effect” and the “higher mean dose-adjusted concentration of ARI” value is 45%. The “increase of the C/D ratio of ARI compared to ARI monotherapy” value in series [1] (routine TDM service, concomitant use) was 44%.
For `COc1ccc(C(CN(C)C)C2(O)CCCCC2)cc1` (centres unmarked) [venlafaxine], in series [1] (co-medication), the “change … of ARI and AM versus control group” value is listed as “no significant influence”.
Take `CN(C)CCC[C@@]1(c2ccc(F)cc2)OCc2cc(C#N)ccc21` [Escitalopram]: the “change … of ARI and AM versus control group” value in series [1] (co-medication) is on record as “slight but statistically significant”. Also, the “change of the systemic exposure to the AM” value in series [1] (co-medication with ARI) was “did not significantly change”.

These data come from publication PMC11596549 (Metabolites, 2024).
